Earlier results on one compound are cited in patent publication US20210186070A1, “STEVIA EXTRACT CONTAINING SELECTED STEVIOL GLYCOSIDES AS FLAVOR, SALTY AND SWEETNESS PROFILE MODIFIER” (PureCircle USA Inc., priority 2013, published 2021).

The structures appear in SMILES notation.

Regarding `C=C1C[C@@]23CC[C@H]4[C@@](C)(CCC[C@@]4(C)C(=O)O[C@@H]4O[C@H](CO)[C@@H](O)[C@H](O)[C@H]4O)[C@@H]2CC[C@]1(O[C@@H]1O[C@H](CO)[C@@H](O)[C@H](O[C@@H]2O[C@H](CO)[C@@H](O)[C@H](O)[C@H]2O)[C@H]1O[C@@H]1O[C@H](CO)[C@@H](O)[C@H](O)[C@H]1O)C3` [Rebaudioside A], the “sweetness potency, times higher than sucrose” value is reported as “around 300 times”.
